One data set concerns the target T1, BCR-NTRK2 BaF3 cells (Homo sapiens, UniProt Q16620).
T1 construct: fused on or other part: P11274 (Breakpoint cluster region protein)
The data set can be described thus: BaF3 BCR-NTRK2 cell proliferation assay (ATPlite). It is filed as cell-based. The conditions noted are these: read-out: Inhibition of Cell Proliferation IC50, BCR/BaF3 TrkB. In outline: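 BaF3 cells expressing BCR fusions were plated at 10,000 cells/well without IL-3, and MV-4-11 cells at 25,000 cells/well. Cells were treated the next day with an 8-point 1:3 dilution series (top 10 μM final) and incubated 3 days at 37 °C. ATPlite luminescence gave cell number, from which IC50 was fitted.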

A short description of data set [1]: Relative solubility by turbidity in aqueous buffers (pH 1.5, 4.5, 6.8, 7.4). It is filed as physicochemical. The following applies: for turbidity threshold (L, M, H) 1.4: pH 1.5 (SGF); for turbidity threshold (L, M, H) 4.5: pH 4.5 (SIF); for turbidity threshold (L, M, H) 6.8: pH 6.8 (SIF); for turbidity threshold (L, M, H) 7.4: pH 7.4 (HEPES). In outline: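 Twofold DMSO dilutions of a 25 mM stock were spiked into SGF (0.5M NaCl, pH 1.5), SIF (0.05M NaH2PO4, pH 4.5 and 6.8) or HEPES buffer (10 mM HEPES, 150 mM NaCl, pH 7.4). Absorbance was read at 490, 535 and 650 nm. The endpoint is the concentration crossing O.D. 0.01, averaged across wavelengths.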

Each structure is given as a SMILES string. pIC50: −log10 of the molar value.

T1 sequence (Q16620 538-807): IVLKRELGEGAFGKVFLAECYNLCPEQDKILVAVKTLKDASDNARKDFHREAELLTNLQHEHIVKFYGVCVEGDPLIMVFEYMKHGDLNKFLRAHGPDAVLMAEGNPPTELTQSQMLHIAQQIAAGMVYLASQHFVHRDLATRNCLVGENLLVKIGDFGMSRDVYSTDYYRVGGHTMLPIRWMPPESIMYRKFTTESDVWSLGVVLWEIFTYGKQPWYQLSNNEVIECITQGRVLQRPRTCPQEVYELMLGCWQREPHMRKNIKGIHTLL

As to `CCc1ccc(Nc2ccc(C(=O)c3c[nH]c4ncnc(NCCCOC)c34)c(F)n2)cn1` [Compound P-4098, [6-[(6-ethyl-3-pyridyl)amino]-2-fluoro-3-pyridyl]-[4-(3-methoxypropylamino)-7H-pyrrolo[2,3-d]pyrimidin-5-yl]methanone], the pIC50 at BCR-NTRK2 BaF3 cells was over 8.00. Also, in data set [1], the “turbidity threshold (L, M, H) 1.4” value is “H (high solubility if the threshold concentration is >250 μm)”; the “turbidity threshold (L, M, H) 4.5” value is on record as “L (low solubility if the threshold concentration is <31.3 μM)”; the “turbidity threshold (L, M, H) 6.8” value is “M (moderate solubility if the threshold concentration is 31.3 μM to 250 μM)”; the “turbidity threshold (L, M, H) 7.4” value was “M (moderate solubility if the threshold concentration is 31.3 μM to 250 μM)”.
For the molecule `CCc1ccc(Nc2ccc(C(=O)c3c[nH]c4ncnc(NC5CCCC5)c34)c(F)n2)cn1` [Compound P-4099, [4-(cyclopentylamino)-7H-pyrrolo[2,3-d]pyrimidin-5-yl]-[6-[(6-ethyl-3-pyridyl)amino]-2-fluoro-3-pyridyl]methanone], on BCR-NTRK2 BaF3 cells, the pIC50 was over 8.00. Besides, in data set [1], the “turbidity threshold (L, M, H) 1.4” value is on record as “H (high solubility if the threshold concentration is >250 μm)”; the “turbidity threshold (L, M, H) 4.5” value is recorded as “L (low solubility if the threshold concentration is <31.3 μM)”; the “turbidity threshold (L, M, H) 6.8” value is “L (low solubility if the threshold concentration is <31.3 μM)”; the “turbidity threshold (L, M, H) 7.4” value is reported as “L (low solubility if the threshold concentration is <31.3 μM)”.
On to `CCCCNc1ncnc2[nH]cc(C(=O)c3ccc(Nc4ccc(CC)nc4)nc3F)c12` [Compound P-4100, [4-(butylamino)-7H-pyrrolo[2,3-d]pyrimidin-5-yl]-[6-[(6-ethyl-3-pyridyl)amino]-2-fluoro-3-pyridyl]methanone], for which the pIC50 at BCR-NTRK2 BaF3 cells was over 8.00. For the same molecule, in data set [1], the “turbidity threshold (L, M, H) 1.4” value is given as “H (high solubility if the threshold concentration is >250 μm)”; the “turbidity threshold (L, M, H) 4.5” value was “M (moderate solubility if the threshold concentration is 31.3 μM to 250 μM)”; the “turbidity threshold (L, M, H) 6.8” value is “M (moderate solubility if the threshold concentration is 31.3 μM to 250 μM)”; the “turbidity threshold (L, M, H) 7.4” value is “M (moderate solubility if the threshold concentration is 31.3 μM to 250 μM)”.
For `CC(C)Nc1ncnc2[nH]cc(C(=O)c3ccc(NC4CCCCC4)nc3F)c12` [Compound P-4101, [6-(cyclohexylamino)-2-fluoro-3-pyridyl]-[4-(isopropylamino)-7H-pyrrolo[2,3-d]pyrimidin-5-yl]methanone], on BCR-NTRK2 BaF3 cells, the pIC50 is over 8.00. In addition, in data set [1], the “turbidity threshold (L, M, H) 1.4” value is reported as “M (moderate solubility if the threshold concentration is 31.3 μM to 250 μM)”; the “turbidity threshold (L, M, H) 4.5” value is “L (low solubility if the threshold concentration is <31.3 μM)”; the “turbidity threshold (L, M, H) 6.8” value is reported as “L (low solubility if the threshold concentration is <31.3 μM)”; the “turbidity threshold (L, M, H) 7.4” value is given as “L (low solubility if the threshold concentration is <31.3 μM)”.
`CNc1ncnc2[nH]cc(C(=O)c3ccc(NC4CCCCC4)nc3F)c12` [Compound P-4102, [6-(cyclohexylamino)-2-fluoro-3-pyridyl]-[4-(methylamino)-7H-pyrrolo[2,3-d]pyrimidin-5-yl]methanone]: at BCR-NTRK2 BaF3 cells, the pIC50 is over 7.00. Moreover, in data set [1], the “turbidity threshold (L, M, H) 1.4” value is “H (high solubility if the threshold concentration is >250 μm)”; the “turbidity threshold (L, M, H) 4.5” value is recorded as “M (moderate solubility if the threshold concentration is 31.3 μM to 250 μM)”; the “turbidity threshold (L, M, H) 6.8” value was “M (moderate solubility if the threshold concentration is 31.3 μM to 250 μM)”; the “turbidity threshold (L, M, H) 7.4” value is recorded as “M (moderate solubility if the threshold concentration is 31.3 μM to 250 μM)”.

The values are drawn from US8901118B2, “Compounds and methods for kinase modulation, and indications therefor” (Plexxikon Inc., priority 2010, dated 2014).
